Test [1] deals with T1, human AR (Homo sapiens, UniProt P10275).
T1 sequence (P10275 1-920): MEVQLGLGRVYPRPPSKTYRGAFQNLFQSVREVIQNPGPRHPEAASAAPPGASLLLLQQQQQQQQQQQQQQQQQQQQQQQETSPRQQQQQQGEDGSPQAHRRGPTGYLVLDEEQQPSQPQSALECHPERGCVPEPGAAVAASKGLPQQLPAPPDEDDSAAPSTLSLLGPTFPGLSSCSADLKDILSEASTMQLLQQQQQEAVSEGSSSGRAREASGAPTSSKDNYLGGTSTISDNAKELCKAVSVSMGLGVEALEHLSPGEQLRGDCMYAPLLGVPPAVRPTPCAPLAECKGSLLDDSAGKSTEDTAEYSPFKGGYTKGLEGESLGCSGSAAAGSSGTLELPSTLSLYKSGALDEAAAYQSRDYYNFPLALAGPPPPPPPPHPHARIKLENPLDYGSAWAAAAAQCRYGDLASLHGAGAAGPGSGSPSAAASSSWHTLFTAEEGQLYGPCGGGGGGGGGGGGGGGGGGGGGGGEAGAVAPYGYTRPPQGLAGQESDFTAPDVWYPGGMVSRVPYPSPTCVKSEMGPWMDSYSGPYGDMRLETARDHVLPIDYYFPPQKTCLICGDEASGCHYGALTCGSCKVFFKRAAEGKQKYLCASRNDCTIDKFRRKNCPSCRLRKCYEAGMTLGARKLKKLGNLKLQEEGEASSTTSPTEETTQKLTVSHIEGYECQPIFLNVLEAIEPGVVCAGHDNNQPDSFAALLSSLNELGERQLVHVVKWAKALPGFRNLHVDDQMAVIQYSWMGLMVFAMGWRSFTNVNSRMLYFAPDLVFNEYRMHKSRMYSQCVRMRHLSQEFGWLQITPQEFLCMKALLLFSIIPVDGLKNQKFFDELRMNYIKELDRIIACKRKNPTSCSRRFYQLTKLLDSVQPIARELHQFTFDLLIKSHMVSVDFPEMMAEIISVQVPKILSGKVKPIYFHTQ
The test can be described thus: Co-transfection assay, AR antagonist activity (CV-1 cells, in presence of DHT). In kind it is cell-based. The settings on record: for AR Antagonist CV-1 Cells Efficacy (%): percent maximal inhibition, DHT at its EC50; for IC50: read-out: AR Antagonist CV-1 Cells Potency.

The target of test [2] is T1, human AR. The test can be described thus: Co-transfection assay, AR agonist activity (CV-1 cells, MTV-LUC reporter). The format is cell-based. The settings on record: CV-1 cells; for EC50: agonist potency EC50; for AR Agonist CV-1 Cells Efficacy (%): percent maximal response relative to reference agonist DHT.
In test [3] the target is T1, human AR. The test can be described thus: AR whole cell competitive binding assay (COS-1 cells, 3H-DHT). As to conditions: 1 nM 3H-DHT, Cheng-Prusoff.
Procedure: AR Binding: For the whole cell binding assay, COS-1 cells in 96-well microtiter plates containing DMEM-10% FBS were transfected as described above with the following plasmid DNA: pRShAR (2 ng/well), pRS-β-Gal (50 ng/well) and pGEM (48 ngcwell). Six hours after transfection, media was removed, the cells were washed with PBS and fresh media was added. The next day, the media was changed to DMEM-serum free to remove any endogenous ligand that might be complexed with the receptor in the cells.
Three replicates were used for each sample. […] The remaining media was removed, the cells were washed three times with PBS to remove unbound ligand, and cells were lysed with a Triton X-100-based buffer.
For the saturation analyses, the difference between the total binding and the nonspecific binding, normalized by the β-Gal rate, was defined as specific binding. […] The Ki values were determined by application of the Cheng-Prusoff equation to the IC50 values, where:
After correcting for non-specific binding, IC50 values were determined. […] The IC50 value was determined graphically from a log-logit plot of the data. The Ki values were determined by application of the Cheng-Prusoff equivuation to the IC50 values, the labeled ligand concentration and the Kd of the labeled ligand.

As usually defined, the EC50 is the concentration giving half of the maximal effect. As a reminder, the Ki is the dissociation constant of the complex between target and ligand, obtained from inhibition or displacement. Lower therefore signals a stronger hold on the target.

Molecules are shown by their SMILES.

Consider `O=c1cc(C(F)(F)F)c2cc(C3=CCCCCC3)ccc2[nH]1` [Compound 633, 6-Cycloheptenyl-4-trifluoromethyl-2(1H)-quinolinone], for which, in test [1], the “AR Antagonist CV-1 Cells Efficacy (%)” value was found to be 51% and the IC50 worked out at 0.0075 µM. Besides, in test [2], the EC50 stood at 0.038 µM and the “AR Agonist CV-1 Cells Efficacy (%)” value turned out to be 33%. The same molecule gave an inhibition constant (Ki) in test [3] of 0.097 µM.

Consider `O=c1cc(C(F)(F)F)c2cc(N3CCCC3Cc3ccccc3)ccc2[nH]1` (racemic) [Compound 341, (±)-6-(2-Benzyl-1-pyrrolidino)-4-trifluoromethyl-2(1H)-quinolinone], for which, in test [1], the “AR Antagonist CV-1 Cells Efficacy (%)” value turned out to be 85% and the IC50 was 0.015 µM. The same molecule gave a half-maximal effective concentration (EC50) in test [2] above 10 µM. In test [3], this molecule returned a Ki of 0.277 µM.

For `O=c1cc(C(F)(F)F)c2cc(N3CCCCC3CO)ccc2[nH]1` (racemic) [Compound 331, (±)-6-(2-Hydroxymethyl-1-piperidino)-4-trifluoromethyl-2(1H)-quinolinone], in test [1], the “AR Antagonist CV-1 Cells Efficacy (%)” value stood at 42% and the IC50 was determined as 0.0057 µM. In test [2], the response was half-maximal at 0.021 µM (EC50) and the “AR Agonist CV-1 Cells Efficacy (%)” value stood at 44%. Besides, in test [3], the inhibition constant (Ki) is above 1 µM.

As for `O=c1cc(C(F)(F)F)c2cc(N3CCCC[C@@H]3[C@@H](O)C(F)(F)F)ccc2[nH]1` [Compound 457, (+)-6-(2R-(1R-Hydroxy-2,2,2-trifluoroethyl)-1-piperidino)-4-trifluoromethyl-2(1H)-quinolinone], in test [1], the “AR Antagonist CV-1 Cells Efficacy (%)” value is “na (na = not active (i.e. efficacy of <20 and potency of >10,000))”; the IC50 is above 10 µM. Moreover, in test [2], the EC50 is 0.003 µM and the “AR Agonist CV-1 Cells Efficacy (%)” value is 85%. Moreover, the Ki in test [3] was 0.0032 µM.

Take `O=c1[nH]c2cc(NC3CCCC3)ccc2c(C(F)(F)F)c1F` [Compound 536, 3-Fluoro-7-cyclopentylamino-4-trifluoromethyl-2(1H)-quinolinone]: in test [1], the “AR Antagonist CV-1 Cells Efficacy (%)” value is reported as 76% and the IC50 is 0.028 µM. In test [2], the concentration for a half-maximal effect (EC50) was above 10 µM. Moreover, the inhibitory constant (Ki) in test [3] was 0.188 µM.

For the molecule `CSCC1CCCCN1c1ccc2[nH]c(=O)cc(C(F)(F)F)c2c1` (racemic) [Compound 426, (±)-6-(2-Thiomethoxymethyl-1-piperidino)-4-trifluoromethyl-2(1H)-quinolinone], in test [1], the “AR Antagonist CV-1 Cells Efficacy (%)” value was “na (na = not active (i.e. efficacy of <20 and potency of >10,000))”; the IC50 is above 10 µM. In addition, in test [2], the 50% effective concentration (EC50) stood at 0.045 µM and the “AR Agonist CV-1 Cells Efficacy (%)” value is listed as 93%. In test [3], the inhibition constant Ki was found to be 0.028 µM.

As for `O=c1cc(C(F)(F)F)c2cc(C(O)(c3ccccc3)c3ccccc3)ccc2[nH]1` [Compound 659, 6-(1-Hydroxy-1,1-diphenyl)methyl-4-trifluoromethyl-2(1H)-quinolinone], in test [1], the “AR Antagonist CV-1 Cells Efficacy (%)” value was determined as 70% and the IC50 came out at 0.044 µM. In test [2], this molecule showed an EC50 above 10 µM. Further, the affinity in test [3] corresponds to a Ki of 0.04 µM.

As for `O=c1cc(C(F)(F)F)c2cc(N(CC(F)(F)F)CC(F)(F)F)ccc2o1` [Compound 474, 6-(bis-N,N-2,2,2-Trifluoroethyl)amino-4-trifluoromethylcoumarin], in test [1], the “AR Antagonist CV-1 Cells Efficacy (%)” value was “na (na = not active (i.e. efficacy of <20 and potency of >10,000))”; the IC50 was above 10 µM. In test [2], it took 0.0006 µM to reach a half-maximal effect (EC50) and the “AR Agonist CV-1 Cells Efficacy (%)” value came to 73%. Besides, the Ki in test [3] turned out to be 0.0018 µM.

On to `O=c1cc(C(F)(F)F)c2cc(C3=CCCCC3)ccc2[nH]1` [Compound 630, 6-Cyclohexenyl-4-trifluoromethyl-2(1H)-quinolinone], for which, in test [1], the “AR Antagonist CV-1 Cells Efficacy (%)” value came out at 67% and the IC50 was 0.013 µM. In test [2], a half-maximal effect (EC50) was put at 0.221 µM and the “AR Agonist CV-1 Cells Efficacy (%)” value is recorded as 30%. Also, the affinity in test [3], expressed as Ki, was 0.109 µM.

Turning to `CC(C)CN(CC(F)(F)F)c1ccc2[nH]c(=O)cc(C(F)(F)F)c2c1` [Compound 259, 6-(N-2,2,2-trifluoroethyl-N-isobutyl)amino-4-trifluoromethyl-2(1H)-quinolinone], in test [1], the “AR Antagonist CV-1 Cells Efficacy (%)” value was “na (na = not active (i.e. efficacy of <20 and potency of >10,000))”; the IC50 is above 10 µM. For the same molecule, in test [2], the midpoint of the response, the EC50, lay at 0.0019 µM and the “AR Agonist CV-1 Cells Efficacy (%)” value came to 97%. Moreover, the affinity in test [3] corresponds to a Ki of 0.0063 µM.

In the case of `CC(C)CN(CC(C)C)c1ccc2[nH]c(=O)cc(C(F)(F)F)c2c1` [Compound 221, 6-Diisobutylamino-4-trifluoromethyl-2(1H)-quinolinone], in test [1], the “AR Antagonist CV-1 Cells Efficacy (%)” value is “na (na = not active (i.e. efficacy of <20 and potency of >10,000))”; the IC50 was above 10 µM. In test [2], a half-maximal effect (EC50) was put at 0.023 µM and the “AR Agonist CV-1 Cells Efficacy (%)” value came to 114%. This molecule also gave a Ki in test [3] of 0.147 µM.

On to `Nc1cc2[nH]c(=O)cc(C(F)(F)F)c2cc1OCC(F)(F)F` [Compound 571, 7-Amino-6-(2,2,2-trifluoroethoxy)-4-trifluoromethyl-2(1H)-quinolinone], for which, in test [1], the “AR Antagonist CV-1 Cells Efficacy (%)” value is given as 69% and the IC50 came to 0.014 µM. Further, the EC50 in test [2] was above 10 µM. The molecule further gave a Ki in test [3] of 0.071 µM.

For `CCCOc1c(NCC(F)(F)F)ccc2[nH]c(=O)cc(C(F)(F)F)c12` [Compound 602, 6-(N-2,2,2-Trifluoroethyl)amino-5-propyloxy-4-trifluoromethyl-2(1H)-quinolinone], in test [1], the “AR Antagonist CV-1 Cells Efficacy (%)” value is reported as 85% and the IC50 came out at 0.027 µM. For the same molecule, in test [2], the concentration for a half-maximal effect (EC50) is above 10 µM. For the same molecule, the inhibition constant Ki in test [3] was determined as 0.045 µM.

Turning to `COc1cccc(-c2ccc3[nH]c(=O)cc(C)c3c2)c1` [Compound 758, 4-Methyl-6-(3-methoxyphenyl)-2(1H)-quinolinone], in test [1], the “AR Antagonist CV-1 Cells Efficacy (%)” value was 94% and the IC50 amounted to 0.087 µM. For the same molecule, the EC50 in test [2] was above 10 µM. The same molecule gave a Ki in test [3] of 0.0036 µM.

As for `O=c1cc(C(F)(F)F)c2cc(N3CCc4ccccc43)ccc2[nH]1` [Compound 347, 6-(1-Indolino)-4-trifluoromethyl-2(1H)-quinolinone], in test [1], the “AR Antagonist CV-1 Cells Efficacy (%)” value stood at 89% and the IC50 is 0.059 µM. In test [2], this molecule returned an EC50 above 10 µM. The same molecule showed a Ki in test [3] of 0.97 µM.

Take `CC1COC(C(F)(F)F)N1c1ccc2[nH]c(=O)cc(C(F)(F)F)c2c1` (racemic) [Compound 352, (±)-6-(2-Trifluoromethyl-5-trans-methyl-1-oxazolidino)-4-trifluoromethyl-2(1H)-quinolinone]: in test [1], the “AR Antagonist CV-1 Cells Efficacy (%)” value is “na (na = not active (i.e. efficacy of <20 and potency of >10,000))”; the IC50 is above 10 µM. Moreover, in test [2], the concentration giving a half-maximal response (EC50) was found to be 0.012 µM and the “AR Agonist CV-1 Cells Efficacy (%)” value was 113%. Also, the affinity in test [3] corresponds to a Ki of 0.025 µM.

In the case of `O=c1cc(C(F)(F)F)c2cc(N3CCCCC3CCOCc3ccc(C(F)(F)F)cc3)ccc2[nH]1` (racemic) [Compound 449, (±)-6-(2-(4-Trifluoromethyl)benzyloxyethyl-1-piperidino)-4-trifluoromethyl-2(1H)-quinolinone], in test [1], the “AR Antagonist CV-1 Cells Efficacy (%)” value was “na (na = not active (i.e. efficacy of <20 and potency of >10,000))”; the IC50 is above 10 µM. Further, in test [2], the concentration for a half-maximal effect (EC50) stood at 0.016 µM and the “AR Agonist CV-1 Cells Efficacy (%)” value worked out at 83%. The inhibition constant (Ki) in test [3] was determined as 0.0084 µM.

For the origin of these results see patent US7696246B2 (Ligand Pharmaceuticals Incorporated, priority 1999, dated 2010).
